Assay results taken from Sander's compilation of Henry's law constants (doi:10.1021/je960218u).

Experiment: Henry solubility constant Hcp at 298.15 K (mol/(m3 Pa))
Conditions: reference: Shiu and Mackay (1997)

Row | SMILES | Henry solubility constant Hcp
1 | Clc1cc(Cl)c(Cl)c(Cl)c1 [1,2,3,5-tetrachlorobenzene] | 0.0063
2 | Clc1cccc(Cl)c1Cl [1,2,3-trichlorobenzene] | 0.0079
3 | Clc1ccc(Cl)cc1 [1,4-dichlorobenzene] | 0.0041
4 | Cc1cccc2c(C)cccc12 [1,5-dimethylnaphthalene] | 0.028
5 | Clc1cccc2ccccc12 [1-chloronaphthalene] | 0.028
6 | CCCCCCCO [1-heptanol] | 0.18
7 | Cc1cccc2ccccc12 [1-methylnaphthalene] | 0.041
8 | CC(=O)c1ccccc1 [1-phenylethanone] | 0.93
9 | c1ccc2c(c1)Cc1ccccc1-2 [2,3-benzindene] | 0.1
10 | Clc1ccc2ccccc2c1 [2-chloronaphthalene] | 0.03
11 | CCCCCC(C)=O [2-heptanone] | 0.058
12 | CC(C)CO [2-methyl-1-propanol] | 0.37
13 | CCCC(C)=O [2-pentanone] | 0.12
14 | c1cc2c3c(cccc3c1)CC2 [acenaphthene] | 0.062
15 | c1ccc2cc3ccccc3cc2c1 [anthracene] | 0.13
16 | c1ccc(-c2ccccc2)cc1 [biphenyl] | 0.032
17 | Brc1ccccc1 [bromobenzene] | 0.004
18 | Clc1ccccc1 [chlorobenzene] | 0.0032
19 | c1ccc2ccccc2c1 [naphthalene] | 0.022
20 | c1ccc2c(c1)ccc1ccccc12 [phenanthrene] | 0.28
